Among the test systems are EKVX; OVCAR-4; A549; ACHN; HCC 2998; MOLT-4; OVCAR-3; COLO 205; NCI-H226; CCRF-CEM; K562; HOP-62; UO-31; SR; CAKI-1; NCI-H522; NCI-H460; UACC-62; HL-60; SK-MEL-2.
Common to all, as to assay: inhibition of tumour cell growth, NCI panel, 48 h

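In this assay, cells in 96-well plates receive the compound at five concentrations for 48 hours. Endpoints are linearly interpolated between the surrounding concentrations. GI50 marks 50% less growth.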 Active and inactive are the calls of the source. No stated cut-off is given here; in the data, active = GI50 up to about 1.1 µM and inactive = higher. Where only a bound is given, the exact number is not on record here.

As for `Nc1nc(Cl)c(N)c(NCC2(CO)CC(O)C2)n1` (centres undefined), the GI50 in the assay on EKVX is > 100 µM (inactive); in the assay on OVCAR-4 it was > 100 µM (inactive); with A549, > 100 µM (inactive); in the assay with ACHN, > 100 µM (inactive); with HCC 2998, 46.3 µM (inactive); in the assay on MOLT-4, > 100 µM (inactive). In addition, the GI50 with OVCAR-3, in the assay on COLO 205, in the assay with NCI-H226, in the assay on CCRF-CEM, in the assay with K562 and with HOP-62 was > 100 µM (inactive) in each case. The GI50 with UO-31, in the assay on SR, in the assay with CAKI-1, with NCI-H522, in the assay with NCI-H460 and in the assay with UACC-62 was > 100 µM (inactive) each time. Further, the GI50 in the assay on HL-60 and in the assay on SK-MEL-2 was > 100 µM (inactive) in each case.

For `COC(=O)c1ccccc1CC1Cc2ccc3c(c2C1)CCC3` (centres undefined), the GI50 in the assay with EKVX was 17.3 µM (inactive); in the assay with OVCAR-4 it was 24.2 µM (inactive); in the assay with A549, 30.3 µM (inactive); in the assay with ACHN, 30.5 µM (inactive); in the assay with HCC 2998, 23.8 µM (inactive); in the assay with MOLT-4 it was 21.6 µM (inactive). For the same molecule, the GI50 is 31.3 µM (inactive) in the assay with OVCAR-3; 17.4 µM (inactive) in the assay on COLO 205; 35.1 µM (inactive) with NCI-H226; 17.9 µM (inactive) with CCRF-CEM; 29.6 µM (inactive) in the assay on K562; 38.9 µM (inactive) in the assay on HOP-62. The GI50 in the assay on UO-31 was 37 µM (inactive); with SR, 5.38 µM (inactive); in the assay on CAKI-1, 45.5 µM (inactive); with NCI-H522, 17.7 µM (inactive); in the assay on NCI-H460, 30.1 µM (inactive); with UACC-62, 38.5 µM (inactive). Also, the values for the GI50 in the assay with HL-60 and in the assay with SK-MEL-2 were 13.9 µM (inactive) and 15.6 µM (inactive), respectively.

Regarding `CC(C)C(NCc1c2ccccc2nc2ccccc12)C(=O)O` (centres undefined), the GI50 in the assay on EKVX is 40.6 µM (inactive); with OVCAR-4, 15 µM (inactive); in the assay on A549, 74.6 µM (inactive); with ACHN, 35 µM (inactive); with HCC 2998 it was 47.9 µM (inactive); in the assay with MOLT-4, 15.2 µM (inactive). In addition, the GI50 in the assay with OVCAR-3 is 39.5 µM (inactive); in the assay with COLO 205, 72.8 µM (inactive); with NCI-H226, > 100 µM (inactive); in the assay with CCRF-CEM, 23.8 µM (inactive); in the assay on K562, 32.6 µM (inactive); in the assay with HOP-62, > 100 µM (inactive). Also, the GI50 was 20.6 µM (inactive) in the assay on SR; 28.6 µM (inactive) with CAKI-1; 22 µM (inactive) in the assay on NCI-H522; 31.1 µM (inactive) with NCI-H460; 25.3 µM (inactive) with HL-60; 62.2 µM (inactive) in the assay with SK-MEL-2.

Regarding `O=S(=O)(O)c1ccc(/N=N/c2ccc(/N=N/c3c(O)ccc4cc(S(=O)(=O)O)ccc34)cc2)cc1`, the GI50 in the assay on EKVX, in the assay on A549, in the assay on ACHN, in the assay on HCC 2998, in the assay on MOLT-4 and in the assay on OVCAR-3 was > 100 µM (inactive) in each case. Besides, the GI50 in the assay on COLO 205 is > 100 µM (inactive); with NCI-H226, > 100 µM (inactive); in the assay with CCRF-CEM it was > 100 µM (inactive); in the assay on K562, > 100 µM (inactive); with HOP-62, > 100 µM (inactive); with UO-31, 53.3 µM (inactive). The GI50 in the assay with SR, with CAKI-1, in the assay on NCI-H522, in the assay on NCI-H460, with UACC-62 and with HL-60 was > 100 µM (inactive) in each case. In addition, the GI50 in the assay on SK-MEL-2 was > 100 µM (inactive).

Take `Cc1nc2ccc(S(=O)(=O)Nc3ccccn3)cc2c(=O)n1NS(=O)(=O)c1ccccn1`: the GI50 with EKVX, in the assay on OVCAR-4, with ACHN, in the assay on HCC 2998, in the assay on MOLT-4 and with OVCAR-3 was > 100 µM (inactive) in each case. The GI50 with COLO 205, in the assay with NCI-H226, with CCRF-CEM, in the assay with K562, in the assay on HOP-62 and in the assay on UO-31 was > 100 µM (inactive) throughout. Besides, the GI50 in the assay with SR, in the assay on CAKI-1, in the assay with NCI-H522, with NCI-H460, in the assay with UACC-62 and in the assay on HL-60 was > 100 µM (inactive) throughout. For the same molecule, the GI50 in the assay with SK-MEL-2 is > 100 µM (inactive).

Turning to `CC(=O)NC1C(OCc2ccccc2)OC(COC(=O)CCCCCNc2ccc([N+](=O)[O-])c3[nH]c4ccc(O)cc4c(=O)c23)C(O)C1OC(C)C(=O)N[C@@H](C)C(=O)N[C@H](CCC(=O)OCc1ccccc1)C(N)=O` (some centres undefined), the GI50 with EKVX was 3.94 µM (inactive); in the assay on OVCAR-4, 3.34 µM (inactive); in the assay on A549 it was 1.26 µM (inactive); with ACHN, 17.3 µM (inactive); in the assay with HCC 2998 it was 3.25 µM (inactive); in the assay with MOLT-4, 1.87 µM (inactive). Also, the GI50 in the assay on OVCAR-3 is 2.15 µM (inactive); in the assay on COLO 205, 1.55 µM (inactive); in the assay on NCI-H226, 4.9 µM (inactive); in the assay on CCRF-CEM it was 3.06 µM (inactive); in the assay with K562, 1.49 µM (inactive); in the assay on HOP-62, 5.9 µM (inactive). Also, the GI50 in the assay on SR is 0.522 µM (active); in the assay on CAKI-1, 1.56 µM (inactive); with NCI-H522, 1.6 µM (inactive); with NCI-H460 it was 0.261 µM (active); in the assay with UACC-62, 1.77 µM (inactive); in the assay with HL-60, 2.77 µM (inactive). The GI50 in the assay with SK-MEL-2 is 1.95 µM (inactive).

Take `O=C(O)c1ccc(OCc2nc3cc(C(F)(F)F)ccc3nc2-c2ccccc2)cc1`: the GI50 in the assay with EKVX was 55.7 µM (inactive); with A549, 39.2 µM (inactive); in the assay on ACHN, 30.9 µM (inactive); in the assay with HCC 2998 it was 41.2 µM (inactive); in the assay on OVCAR-3, 34.8 µM (inactive); in the assay with COLO 205, 19.8 µM (inactive). In addition, the GI50 was 91.4 µM (inactive) in the assay on NCI-H226; 42.8 µM (inactive) with CCRF-CEM; 39.4 µM (inactive) in the assay with K562; 66.2 µM (inactive) in the assay on HOP-62; 22 µM (inactive) with UO-31; 11.5 µM (inactive) in the assay on SR. Moreover, the GI50 in the assay with CAKI-1 was 5.52 µM (inactive); with NCI-H522, 74.6 µM (inactive); in the assay on NCI-H460 it was 24.7 µM (inactive); with UACC-62 it was 37.6 µM (inactive); in the assay on HL-60 it was 40 µM (inactive); with SK-MEL-2, 37.9 µM (inactive).

Consider `C/C(=N/OCCC(=O)O)C1CC1`, for which the GI50 with EKVX, with OVCAR-4, with A549, with ACHN, in the assay with HCC 2998 and in the assay with OVCAR-3 was > 100 µM (inactive) throughout. In addition, the GI50 in the assay with COLO 205, with NCI-H226, with CCRF-CEM, in the assay with K562, in the assay with HOP-62 and in the assay with UO-31 was > 100 µM (inactive) each time. The GI50 was 90.4 µM (inactive) in the assay on SR; > 100 µM (inactive) in the assay on CAKI-1; > 100 µM (inactive) with NCI-H522; > 100 µM (inactive) in the assay with NCI-H460; > 100 µM (inactive) in the assay with UACC-62; > 100 µM (inactive) in the assay with HL-60. Further, in the assay on SK-MEL-2, the GI50 is > 100 µM (inactive).

In the case of `Cc1ccc(-c2cc(=S)n(-c3ccccc3)c3[nH]c(=S)n(-c4ccccc4)c(=N)c23)cc1`, the GI50 with OVCAR-4, in the assay on A549, with ACHN, with HCC 2998, in the assay on MOLT-4 and with OVCAR-3 was > 100 µM (inactive) throughout. The GI50 in the assay with COLO 205, in the assay on NCI-H226, in the assay on CCRF-CEM, with K562, with HOP-62 and in the assay on UO-31 was > 100 µM (inactive) in each case. Moreover, the GI50 in the assay on SR was > 100 µM (inactive); in the assay with CAKI-1, > 100 µM (inactive); in the assay with NCI-H522 it was 77.8 µM (inactive); in the assay on NCI-H460, > 100 µM (inactive); in the assay on UACC-62, > 100 µM (inactive); in the assay with HL-60, > 100 µM (inactive). Moreover, the GI50 in the assay with SK-MEL-2 is > 100 µM (inactive).

Take `CNC(=S)NNC(=O)c1c(C)nc2sccn12`: the GI50 in the assay on EKVX, in the assay with A549, in the assay on ACHN, in the assay on HCC 2998, in the assay with MOLT-4 and in the assay with OVCAR-3 was > 100 µM (inactive) in each case. Further, the GI50 in the assay with COLO 205, in the assay on NCI-H226, in the assay on CCRF-CEM, in the assay with K562, in the assay with HOP-62 and with SR was > 100 µM (inactive) in each case. Moreover, the GI50 in the assay with CAKI-1, with NCI-H522, with NCI-H460, with UACC-62, in the assay with HL-60 and in the assay with SK-MEL-2 was > 100 µM (inactive) each time.
